Laboratory results taken from PMC7322745 (Journal of Ginseng Research, 2019).

Assay type: in vivo, human
Settings: for Tmax: both, human, serum, oral, 3 g, mean Tmax, all participants (RG and FRG groups together)

SMILES	Tmax [h]	AUC in the FRG group relative to the RG group (mean AUC, FRG group vs RG group)
CC(C)=CCC[C@](C)(O[C@@H]1O[C@H](CO)[C@@H](O)[C@H](O)[C@H]1O)[C@H]1CC[C@]2(C)[C@@H]1[C@H](O)C[C@@H]1[C@@]3(C)CC[C@H](O[C@@H]4O[C@H](CO)[C@@H](O)[C@H](O)[C@H]4O)C(C)(C)[C@@H]3CC[C@]12C [F2, ginsenoside F2]	9.32 ± 3.38	more than six
CC(C)=CCC[C@](C)(O[C@@H]1O[C@H](CO)[C@@H](O)[C@H](O)[C@H]1O)[C@H]1CC[C@]2(C)[C@@H]1[C@H](O)C[C@@H]1[C@@]3(C)CC[C@H](O[C@@H]4O[C@H](CO)[C@@H](O)[C@H](O)[C@H]4O[C@@H]4O[C@H](CO)[C@@H](O)[C@H](O)[C@H]4O)C(C)(C)[C@@H]3CC[C@]12C [Rd, ginsenoside Rd]	9.41 ± 4.42	–
